Assay results reported in ChEMBL document CHEMBL1201862, “PubChem BioAssay data set” (2004).
Where a name gives a salt, the structure may show the parent alone.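 Growth conditions: 96-well plates. Treatment: test compound, 48 hours, 5 concentrations. Analysis: linear interpolation between bracketing concentrations; unreached endpoints set to highest concentration. Here, GI50 denotes the concentration required for 50% inhibition of growth.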 Calls of active or inactive are those of the source. No stated cut-off is given here; in the data, active = GI50 up to about 1.1 µM and inactive = higher.

Legend:
Test in all cases: growth of human tumour cells (NCI), 48 h
SK-MEL-2 = test system: SK-MEL-2
OVCAR-3 = test system: OVCAR-3
Hs-578T = test system: Hs-578T
DU-145 = test system: DU-145
NCI-H522 = test system: NCI-H522
T47D = test system: T47D
KM-20L2 = test system: KM-20L2
UACC-62 = test system: UACC-62
HOP-92 = test system: HOP-92
DMS-273 = test system: DMS-273
PC-3 = test system: PC-3
HOP-18 = test system: HOP-18
SNB-78 = test system: SNB-78
A498 = test system: A498
COLO 205 = test system: COLO 205
MDA-MB-435 = test system: MDA-MB-435
EKVX = test system: EKVX
HCT-116 = test system: HCT-116
SK-MEL-28 = test system: SK-MEL-28
786-0 = test system: 786-0
DMS-114 = test system: DMS-114
IGROV-1 = test system: IGROV-1
MDA-N = test system: MDA-N
M14 = test system: M14
SNB-75 = test system: SNB-75
CCRF-CEM = test system: CCRF-CEM
BT-549 = test system: BT-549
TK-10 = test system: TK-10
MDA-MB-231 = test system: MDA-MB-231
SW-620 = test system: SW-620
SNB-19 = test system: SNB-19
MOLT-4 = test system: MOLT-4
RPMI-8226 = test system: RPMI-8226
SK-MEL-5 = test system: SK-MEL-5
KM12 = test system: KM12
LXFL 529 = test system: LXFL 529
Malme-3M = test system: Malme-3M
DLD-1 = test system: DLD-1
OVCAR-8 = test system: OVCAR-8
MCF7 = test system: MCF7
SR = test system: SR
UO-31 = test system: UO-31
NCI/ADR-RES = test system: NCI/ADR-RES
SF-539 = test system: SF-539
OVCAR-4 = test system: OVCAR-4
HCT-15 = test system: HCT-15
HT-29 = test system: HT-29
A549 = test system: A549
OVCAR-5 = test system: OVCAR-5
K562 = test system: K562
XF498 = test system: XF498
U-251 = test system: U-251
RXF 393 = test system: RXF 393
SF-295 = test system: SF-295
ACHN = test system: ACHN
NCI-H226 = test system: NCI-H226
NCI-H460 = test system: NCI-H460
RXF 631 = test system: RXF 631
M19-MEL = test system: M19-MEL
CAKI-1 = test system: CAKI-1
LOX IMVI = test system: LOX IMVI
HCC 2998 = test system: HCC 2998
HOP-62 = test system: HOP-62
HL-60 = test system: HL-60
NCI-H23 = test system: NCI-H23
SK-OV-3 = test system: SK-OV-3
SF-268 = test system: SF-268
SN12C = test system: SN12C
UACC-257 = test system: UACC-257

CC(=O)N(O)CCCCCNC(=O)CCC(=O)N(O)CCCCCNC(=O)CCC(=O)N(O)CCCCCN [DEFEROXAMINE HYDROCHLORIDE]
GI50 (SK-MEL-2): > 92.7 µM (inactive)
GI50 (OVCAR-3): 20.9 µM (inactive)
GI50 (Hs-578T): > 100 µM (inactive)
GI50 (DU-145): 13.6 µM (inactive)
GI50 (NCI-H522): 41.9 µM (inactive)
GI50 (T47D): > 100 µM (inactive)
GI50 (KM-20L2): 17.8 µM (inactive)
GI50 (UACC-62): 31.6 µM (inactive)
GI50 (HOP-92): > 100 µM (inactive)
GI50 (DMS-273): 28.2 µM (inactive)
GI50 (PC-3): > 73.6 µM (inactive)
GI50 (HOP-18): 12.7 µM (inactive)
GI50 (SNB-78): > 100 µM (inactive)
GI50 (A498): > 80.4 µM (inactive)
GI50 (COLO 205): 34.7 µM (inactive)
GI50 (MDA-MB-435): > 78.5 µM (inactive)
GI50 (EKVX): 29 µM (inactive)
GI50 (HCT-116): 14 µM (inactive)
GI50 (SK-MEL-28): 37.9 µM (inactive)
GI50 (786-0): 13.3 µM (inactive)
GI50 (DMS-114): 43.4 µM (inactive)
GI50 (IGROV-1): 65.6 µM (inactive)
GI50 (MDA-N): 53.2 µM (inactive)
GI50 (M14): 19 µM (inactive)
GI50 (SNB-75): > 100 µM (inactive)
GI50 (CCRF-CEM): 4.48 µM (inactive)
GI50 (BT-549): 57.5 µM (inactive)
GI50 (TK-10): 42 µM (inactive)
GI50 (MDA-MB-231): > 100 µM (inactive)
GI50 (SW-620): 29.1 µM (inactive)
GI50 (SNB-19): 51.6 µM (inactive)
GI50 (MOLT-4): 11.2 µM (inactive)
GI50 (RPMI-8226): 62.5 µM (inactive)
GI50 (SK-MEL-5): 21.7 µM (inactive)
GI50 (KM12): 26.7 µM (inactive)
GI50 (LXFL 529): 36.4 µM (inactive)
GI50 (Malme-3M): 55.1 µM (inactive)
GI50 (DLD-1): 45.3 µM (inactive)
GI50 (OVCAR-8): 38.4 µM (inactive)
GI50 (MCF7): 37.9 µM (inactive)
GI50 (SR): 8.87 µM (inactive)
GI50 (UO-31): 24.5 µM (inactive)
GI50 (NCI/ADR-RES): > 72.3 µM (inactive)
GI50 (SF-539): 30.1 µM (inactive)
GI50 (OVCAR-4): 21.7 µM (inactive)
GI50 (HCT-15): 16.8 µM
GI50 (HT-29): 36.6 µM (inactive)
GI50 (A549): 14.5 µM (inactive)
GI50 (OVCAR-5): 12.5 µM (inactive)
GI50 (K562): 57.5 µM (inactive)
GI50 (XF498): > 100 µM (inactive)
GI50 (U-251): 20.6 µM (inactive)
GI50 (RXF 393): 57.4 µM (inactive)
GI50 (SF-295): 7.38 µM (inactive)
GI50 (ACHN): 12.5 µM (inactive)
GI50 (NCI-H226): 26.9 µM (inactive)
GI50 (NCI-H460): 6.53 µM (inactive)
GI50 (RXF 631): 26.9 µM (inactive)
GI50 (M19-MEL): 43.8 µM (inactive)
GI50 (CAKI-1): 42.4 µM (inactive)
GI50 (LOX IMVI): 13.5 µM (inactive)
GI50 (HCC 2998): 55.7 µM (inactive)
GI50 (HOP-62): 18.4 µM (inactive)
GI50 (HL-60): 31 µM (inactive)
GI50 (NCI-H23): 63.5 µM (inactive)
GI50 (SK-OV-3): 38.2 µM (inactive)
GI50 (SF-268): 24.9 µM (inactive)
GI50 (SN12C): 25.9 µM (inactive)
GI50 (UACC-257): 50.4 µM (inactive)
